In PubChem BioAssay AID1552 (Sanford-Burnham Center for Chemical Genomics, 2009):
The source made the active and inactive calls. How the calls were made is not given here.

What follows are molecules tested against Ubiquitin-conjugating enzyme E2 N (Homo sapiens) (UniProt P61088) (assay: UBE2N binders by NMR, biophysical, purified protein (AID 1552)). Settings: NMR binding to purified UBE2N.
Sequence of Ubiquitin-conjugating enzyme E2 N (Homo sapiens) (P61088 whole entry, looked up): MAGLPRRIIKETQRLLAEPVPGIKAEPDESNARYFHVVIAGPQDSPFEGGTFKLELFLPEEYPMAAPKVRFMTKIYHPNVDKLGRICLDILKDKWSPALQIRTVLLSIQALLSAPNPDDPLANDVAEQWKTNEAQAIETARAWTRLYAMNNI
For c1ccc(-c2n[nH]c(-c3ccccn3)n2)nc1, the Kd was > 4 mM (inactive). In the case of CC(=O)Nc1cc(O)cc(O)c1, the Kd is reported as > 4 mM (inactive). For Nc1nncn1C(=O)c1ccccc1Cl, the Kd was > 4 mM (inactive). With Nc1ccc(Oc2ccccc2)nc1 the Kd was > 4 mM (inactive). In the case of Cc1ccc2nc(SCCC#N)nc(C)c2c1, the Kd is reported as > 4 mM (inactive). With Cc1cc([N+](=O)[O-])cc[n+]1[O-] the Kd was > 4 mM (inactive). With CC(=O)n1nc(-c2cccnc2)nc1N the Kd was > 4 mM (inactive). In the case of COc1ccc2c(c1)OC[C@@H](Cc1ccc(OC)c(OC)c1)[C@@H]2O, the Kd is reported as > 4 mM (inactive). Cc1cc(=O)n2ncn(Cc3ccccc3)c2n1 was tested, and the Kd was > 4 mM (inactive). For Cn1ncc(C(=O)NC2CCCCC2)c1Cl, the Kd was > 4 mM (inactive). For O=C(O)C1CSC(c2ccc(Cl)cc2)N1 (stereo not given), the Kd was > 4 mM (inactive). With COC(=O)[C@]1(C)CC[C@]2(C)CC[C@]3(C)C4=CC=C5C(=CC(=O)C(O)=C5C)[C@]4(C)CC[C@@]3(C)[C@@H]2C1 the Kd was > 4 mM (inactive). For CCOC(=O)CNc1ncnc2c1nnn2CC, the Kd was > 4 mM (inactive). For CC1CC[C@@]2(OC1)O[C@H]1CC3C4CC[C@@H]5C[C@@H](O)CC[C@]5(C)C4CC[C@]3(C)[C@H]1[C@@H]2C (stereo not given in full), the Kd was > 4 mM (inactive). In the case of C/C(O)=c1/sc2cc(C)nc(=N)n2c1=O, the Kd is reported as > 4 mM (inactive). CN(C)C(=O)Nc1ccc2c(c1)nnn2C was tested, and the Kd was > 4 mM (inactive). With Cc1nc(-c2cc(C(=O)O)no2)cs1 the Kd was > 4 mM (inactive). In the case of O=c1ccc2cc(O)c(O)cc2o1, the Kd is reported as > 4 mM (inactive). In the case of NC(N)=Nc1nc2ccccc2o1, the Kd is reported as > 4 mM (inactive). O=C(Nc1ccc2c(c1)OCO2)c1cccc(F)c1 was tested, and the Kd was > 4 mM (inactive). CC(=O)Nc1ccc2c(c1)CCCC2=O was tested, and the Kd was > 4 mM (inactive). For Cc1noc(C)c1C(=O)Nc1ccc2c(c1)CCC2, the Kd was > 4 mM (inactive). With CC(C)(CO)NC(=O)c1ccccc1F the Kd was > 4 mM (inactive). With CN1C2CC(OC(=O)[C@H](CO)c3ccccc3)C[C@H]1[C@H]1OC21 (stereo not given in full) the Kd was > 4 mM (inactive). In the case of C[C@@H]1[C@H]2[C@H](O[C@@H]3O[C@H](CO)[C@@H](O)[C@H](O)[C@H]3O)OC=C(C(=O)O)[C@H]2C[C@@H]1O, the Kd is reported as > 4 mM (inactive). With CC(=O)O[C@H]1C[C@@]2(C)[C@@H](C[C@@H](O)C3[C@]2(C)CC[C@H]2[C@H](C)[C@H](O)CC[C@]32C)/C1=C(/CCC=C(C)C)C(=O)O (stereo not given in full) the Kd was > 4 mM (inactive). With Cc1cc(NC(=O)c2cc(C)on2)no1 the Kd was > 4 mM (inactive). CN1CCC(N2CCN(C)CC2)CC1 was tested, and the Kd was > 4 mM (inactive). With Fc1ccc(-c2n[nH]c(=S)n2CC2CCCO2)cc1 (stereo not given) the Kd was > 4 mM (inactive). In the case of O=c1/c(=C\c2cccnc2)sc2nc3ccccc3n12, the Kd is reported as > 4 mM (inactive). Cc1occc1C(=O)NCc1ccccc1F was tested, and the Kd was > 4 mM (inactive). For O=C(CSc1nc2ccccc2[nH]1)N1CCCCC1, the Kd was > 4 mM (inactive). COc1ccc(/C=C2/C(=O)N=C(N)N2C)cc1OC was tested, and the Kd was > 4 mM (inactive). With Cc1cccc(-n2c(N)cc(=O)[nH]c2=S)c1C the Kd was > 4 mM (inactive). In the case of COC(=O)[C@@H]1OC(=O)C2OC23[C@@]1(C)CCC1[C@]2(C)C(C[C@@H](O)[C@]13C)C(C)(C)[C@H](OC(C)=O)C[C@@H]2OC(C)=O (stereo not given in full), the Kd is reported as > 4 mM (inactive). For O=C1C=C(Nc2ccc(O)cc2)c2ccccc2C1=O, the Kd was > 4 mM (inactive). Cc1nnc(SCc2ccccc2)[nH]c1=O was tested, and the Kd was > 4 mM (inactive). O=C1NC(=S)NC(=O)C1=Cc1ccncc1 was tested, and the Kd was > 4 mM (inactive). N=c1c2c3c(sc2ncn1N)CCCC3 was tested, and the Kd was > 4 mM (inactive). In the case of CN1CCN(c2ccc(C(=O)O)cc2)CC1, the Kd is reported as > 4 mM (inactive). With CC1(C)SCC(C(=O)O)N1C=O (stereo not given) the Kd was > 4 mM (inactive). In the case of NC(=O)CC1Nc2cccc3cccc(c23)NC1=O (stereo not given), the Kd is reported as > 4 mM (inactive). For CS(C)=C1C(=O)NC(=O)N(Cc2ccc(F)cc2)C1=O, the Kd was > 4 mM (inactive). For CC(C)c1ccc2c(c1O)CC[C@H]1C3=C(CC[C@]21C)C(=O)OC3, the Kd was > 4 mM (inactive). For Cc1ccc(SCC(=O)N2CCOCC2)cc1, the Kd was > 4 mM (inactive). In the case of c1cnc(N2CCSCC2)nc1, the Kd is reported as > 4 mM (inactive). With CCOC(=O)c1cc(C)[nH]n1 the Kd was > 4 mM (inactive). COCC(=O)NC1CC(C)(C)NC(C)(C)C1 was tested, and the Kd was > 4 mM (inactive). O=C(Oc1ccc(-c2nnco2)cc1)N1CCOCC1 was tested, and the Kd was > 4 mM (inactive). For CC1(C)C(=O)CC[C@@]2(C)C1C[C@@H](O)[C@@]1(C)C3=CC(=O)O[C@@H](c4ccoc4)[C@]3(C)CCC21 (stereo not given in full), the Kd was > 4 mM (inactive). For CCOC(=O)c1c(C)cc(OC)cc1O, the Kd was > 4 mM (inactive). O=C(NC1CCS(=O)(=O)C1)c1ccccc1 (stereo not given) was tested, and the Kd was > 4 mM (inactive). O=C(Nc1nccs1)c1cccnc1 was tested, and the Kd was > 4 mM (inactive). For O=C(Nc1ccc2c(c1)OCCO2)c1c(F)cccc1F, the Kd was > 4 mM (inactive). In the case of O=C1CSC(=O)N1c1cccc(O)c1, the Kd is reported as > 4 mM (inactive). COc1ccc(S(=O)(=O)N2CCC(C(N)=O)CC2)cc1 was tested, and the Kd was > 4 mM (inactive). With O=c1[nH]cnc2nn(-c3ccccc3)nc12 the Kd was > 4 mM (inactive). For O=C(NC1CCS(=O)(=O)C1)c1cccs1 (stereo not given), the Kd was > 4 mM (inactive). In the case of CNCc1ccccc1, the Kd is reported as > 4 mM (inactive). Cc1ccc(/C=N/NC(N)=O)o1 was tested, and the Kd was > 4 mM (inactive). With O=[N+]([O-])c1cccc2c1nnn2C(CO)OCCO (stereo not given) the Kd was > 4 mM (inactive). For O=C1CC(=O)N(c2ccccc2F)C(=S)N1, the Kd was > 4 mM (inactive). With CC(C)NC(=O)c1nc2ccccc2s1 the Kd was > 4 mM (inactive). For Cc1cc(C(=O)N2CCCCCC2)cs1, the Kd was > 4 mM (inactive). In the case of COc1ccccc1NC(=O)NC(N)=O, the Kd is reported as > 4 mM (inactive). With COc1cccc(-c2csc(NC(C)=O)n2)c1 the Kd was > 4 mM (inactive). With Nc1ccnc(C(=O)O)c1 the Kd was > 4 mM (inactive). In the case of COc1ccc(N/C(N)=N\c2nc(C)cc(C)n2)cc1, the Kd is reported as > 4 mM (inactive). With COc1ccccc1NC(=O)CCC(=O)O the Kd was > 4 mM (inactive). For Nc1ccc(C(=O)NCC2CCCO2)cc1 (stereo not given), the Kd was > 4 mM (inactive). In the case of C=C(C)C1(O)OC(=O)C=C1OC (stereo not given), the Kd is reported as > 4 mM (inactive). With O=c1ccc2ccc(O)cc2o1 the Kd was > 4 mM (inactive). With COc1cccc(-c2nc3ccc(O)cc3c(=O)o2)c1 the Kd was > 4 mM (inactive). In the case of CCOC(=O)c1c(-c2ccncc2)csc1N, the Kd is reported as > 4 mM (inactive). For O=c1[nH]c2ccc(S(=O)(=O)NC3CC3)cc2[nH]1, the Kd was > 4 mM (inactive). CC1CCN(C(=O)c2ccc3c(c2)OCCO3)CC1 was tested, and the Kd was > 4 mM (inactive). For O=C1CC(=O)N(c2cccc(Cl)c2)N1, the Kd was > 4 mM (inactive). In the case of OCc1ccc2c(c1)CCO2, the Kd is reported as > 4 mM (inactive). CC(=O)Oc1ccc(-c2cc(=O)c3c(OC(C)=O)cc(OC(C)=O)cc3o2)cc1 was tested, and the Kd was > 4 mM (inactive). CCn1c(-c2ccccc2)n[nH]c1=S was tested, and the Kd was > 4 mM (inactive). With Nc1ccccc1C(=O)N1CCNC(=O)C1 the Kd was > 4 mM (inactive). In the case of O=c1[nH]cnc2c1nnn2Cc1ccccc1, the Kd is reported as > 4 mM (inactive). In the case of O=S1(=O)CCC(Nc2ccccc2)C1 (stereo not given), the Kd is reported as > 4 mM (inactive). In the case of O=C1CSC(=O)N1CNc1ccccc1, the Kd is reported as > 4 mM (inactive). In the case of CNC(=O)C(=O)Nc1c(C)cccc1C, the Kd is reported as > 4 mM (inactive).
